Measurements taken from patent US8680253B2 (OliPass Corporation, priority 2008, dated 2014).
Several values for one entry are separate records, joined by “and”; a condition that tells them apart may be missing. Equal values may be shown once. {L(1)} = linker L(1) as defined below the publication's; {Fam} = fluorescein (FAM) label at the N-terminus; {Lys-NH2} = C-terminal lysine amide

Legend:
complementary DNA = experiment: Binding affinity for DNA: Tm between PNA and complementary DNA (UV absorbance at 260 nm); conditions: 4 μM PNA oligomer and 4 μM DNA, aq buffer pH 7.16, 10 mM sodium phosphate, 100 mM NaCl
Method: (§1) PNA oligomers of this invention were evaluated for their binding affinity for DNA by measuring Tm values as follows.
(§2) 4 μM PNA oligomer and 4 μM DNA were mixed in aq buffer (pH 7.16, 10 mM sodium phosphate, 100 mM NaCl), and incubated at 90° C. for a few minutes and slowly cooled down to RT. Then the solution was transferred into a 4 ml quartz cuvette and the cuvette was tightly sealed. The cuvette was mounted on an Agilent 8453 UV/Visible spectrophotometer and absorbance changes at 260 nm were recorded with increasing the temperature of the cuvette by either 0.5 or 1.0° C. per minute. From the absorbance vs temperature curve, the temperature showing the largest increase rate in absorbance was read out as the melting temperature Tm between PNA and DNA. DNAs for Tm measurement were purchased either from Bioneer, Inc. (www.bioneer.com, Daejon, South Korea) or from Ahram Biosystems (www.ahrambio.com, Seoul, South Korea), and used without further purification.
(§3) FIG. 3 provides graphs of absorbance changes with temperature for Oligo 17 against complementary or mismatch DNA. For sequences of the mismatch DNAs against Oligo 17, refer to Table 2. In FIG. 3, there is a transition temperature in each curve, which was read out as the Tm value for the curve.
(§4) Tm values are provided in Table 2 for PNA oligomers of this invention. These Tm values are presented for illustrative purposes only and should not be interpreted as a restriction to this invention.

mismatch DNA = experiment: Binding affinity for DNA: Tm between PNA and mismatch DNA (UV absorbance at 260 nm); conditions: for decreases in Tm with single base mismatches: single base mismatch versus complementary DNA
Method: as §1, §2, §3, §4

HeLa cells = experiment: Cell penetration of fluorescein-tagged PNA oligomers, confocal fluorescence microscopy; type: cell-based, human
Method: (§5) In order to evaluate the cell penetration ability of PNA oligomers of this invention, cancer cells of human origin were treated with PNA oligomers covalently tagged with fluorescein. The applied method is provided in brief as follows.
(§6) To each cover glass (autoclaved) placed in each well of a 24-well plate, were seeded 20,000˜100,000 cells depending on the growth rate of the cell line used, and the cells were cultured at 37° C. and 5% CO2 for 16 to 24 h. Then the medium was replaced with 500 μl fresh Opti-MEM medium (with or without 1% FBS), to which was added an aliquot of aq stock solution of a PNA oligomer covalently tagged with fluorescein. After cells were cultured for a designated interval, the cells were washed with PBS, and fixed by incubating in 3.7% or 4% paraformaldehyde. The cells were thoroughly washed several times with PBS or PBS containing 0.1% Tween-20. Then the cover glass was mounted onto a slide glass using a drop of mounting solution and sealed with nail polish for confocal fluorescence microscopy. Fluorescence images were taken either on a Zeiss LSM 510 confocal microscope (Germany) at 63× objective or on a Nikon C1Si confocal microscope at 40× objective.

JAR cells = experiment: as above; type: cell-based, human; conditions: 2 μM, 24 h, without FBS, 40× objective
Method: as §5, §6

A549 cells = experiment: as above; type: cell-based, human; conditions: 2 μM, 24 h, without FBS, 40× objective
Method: as §5, §6

mdm2 = experiment: Antisense example: inhibition of ribosomal synthesis of mdm2 in JAR cells, western blotting; type: cell-based, human; conditions: 15 h
Method: The following antisense example is presented for illustrative purposes only and should not be interpreted as a restriction to the present invention.
JAR cells (ATCC catalog #HTB-144) were grown in RPMI-1640 medium supplemented with 10% FBS and 1% penicillin-streptomycin at 37° C. and 5% CO2. Cells were then seeded into each well of a 12-well plate containing 1 ml of the same medium, and treated with an aliquot of an aqueous stock solution of Oligo 9 or […] of a designated concentration. Then the cells were incubated at 37° C. and 5% CO2 for 15 h.
The cells in each well were washed with cold PBS and treated with 80 μl RIPA buffer containing 1% protease inhibitors cocktail, and the plate was incubated at 4° C. and agitated slowly for 15 min. The content of each well was scraped out into a microtube. The microtube was incubated in ice for 10 min and centrifuged at 10,000 g. The resulting supernatant was collected and subjected to protein quantification by Bradford assay and western blot analysis. For electrophoresis, 20 μg of protein was loaded onto each lane of the gel in a minigel apparatus, separated and transferred onto a PVDF membrane (0.45μ, Millipore). The primary mdm2 antibody used for western blotting was SC-965 (Santa Cruz Biotechnology).
FIG. 9 provides western blotting results for JAR cells treated with 5 μM or 10 μM Oligo 9, 5 μM or 10 μM Oligo 10, cotreatment with the oligomers at 5 μM or 10 μM each, and blank (no oligomer treatment).

[1] = 5 μM, 1, 2, 3 and 24 h, without FBS, 63× objective

In the case of “CA(2O2)T-A(2O2)GT-A(2O2)TA-A(2O2)GT-NH2 (CATAGTATAAGT; chemistry not fully specified) [Oligo 18, modified PNA oligomer]”, the “Tm between PNA and complementary DNA” value (complementary DNA) is reported as 66 °C.

For “CA(3)T-A(3)GT-A(3)TA-A(3)GT-NH2 (CATAGTATAAGT; chemistry not fully specified) [Oligo 12]”, the “Tm between PNA and complementary DNA” value (complementary DNA) was 60 °C.

“CA(4)T-A(4)GT-A(4)TA-A(4)GT-NH2 (CATAGTATAAGT; PNA-like chain with modified monomers A(5)/A(4), C-terminal amide, codes undefined, further chemistry not given here) [Oligo 13, modified PNA oligomer]” was tested, and the “Tm between PNA and complementary DNA” value (complementary DNA) was 64 °C.

“CA(5)T-A(5)GT-A(5)TA-A(5)GT-Lys-NH2 (CATAGTATAAGT; modified PNA, C-terminal Lys-NH2, chemistry not fully specified) [Oligo 17, modified PNA oligomer]” was tested, and the “Tm between PNA and complementary DNA” value (complementary DNA) was 72 °C, the “Tm between PNA and mismatch DNA” value (mismatch DNA; mismatch (T → A), DNA ACT-TAA-ACT-ATG) was 59 °C and the “Tm between PNA and mismatch DNA” value (mismatch DNA; mismatch (T → C), DNA ACT-TAC-ACT-ATG) was 61 °C. The “Tm between PNA and mismatch DNA” value (mismatch DNA; mismatch (T → G), DNA ACT-TAG-ACT-ATG) was 58 °C and the “decreases in Tm with single base mismatches” value (mismatch DNA) was 11˜14 °C.

In the case of “CA(5)T-A(5)GT-A(5)TA-A(5)GT-NH2 (CATAGTATAAGT; chemistry not fully specified) [Oligo 14, modified PNA oligomer]”, the “Tm between PNA and complementary DNA” value (complementary DNA) is reported as 69 °C.

With “CA(7)T-A(7)GT-A(7)TA-A(7)GT-NH2 (CATAGTATAAGT; chemistry not fully specified) [Oligo 15, modified PNA oligomer]” the “Tm between PNA and complementary DNA” value (complementary DNA) was 71 °C.

With “CAT-AGT-ATA-AGT-Lys-NH2 (CATAGTATAAGT; all peptide nucleic acid (PNA), 3' {Lys-NH2}) [Oligo 16, unmodified PNA oligomer, reference compound]” the “Tm between PNA and complementary DNA” value (complementary DNA) was 56 °C.

“CAT-AGT-ATA-AGT-NH2 (CATAGTATAAGT; chemistry not fully specified) [Oligo 27, unmodified PNA oligomer, reference compound]” was tested, and the “Tm between PNA and complementary DNA” value (complementary DNA) was 55 °C.

For “Fam-L(1)L(1)-TGC(1O3)-TAC(1O3)-TAC(1O3)-TG-Lys-NH2 (TGCTACTACTG; Fam-L(1)L(1) N-term, Lys-NH2, modified PNA, chemistry not fully specified) [Oligo 1, fluorescein-tagged modified PNA oligomer]”, the “cell penetration, fluorescence intensity” value (HeLa cells; 1 μM, 6 or 24 h, with 1% FBS, 40× objective) was “fluorescence intensity is faint even at 24 h” and the “cell penetration, fluorescence intensity” value (HeLa cells; [1]) was “fluorescence intensity is clear and becomes intense over 24 h”.

With “Fam-L(1)L(1)-TGC-TAC-TAC-TG-Lys-NH2 (TGCTACTACTG; all peptide nucleic acid (PNA), 5' {Fam}-{L(1)}-{L(1)}, 3' {Lys-NH2}) [Oligo 2, fluorescein-tagged 'unmodified' PNA oligomer, reference compound]” the “cell penetration, fluorescence intensity” value (HeLa cells; [1]) was “fluorescence intensity is faint”.

With “Fam-L(2)-CA(5)T-A(4g)GT-A(4g)TA(5)-AGT-Lys-NH2 (CATAGTATAAGT; Fam-L(2) label, modified PNA, Lys-NH2, chemistry not fully specified) [Oligo 24, fluorescein-tagged modified PNA oligomer]” the “Tm between PNA and complementary DNA” value (complementary DNA) was 70 °C.

For “Fam-L(2)-TG(5)G-C(1O2)AA-C(1O2)TG-A(5)T-Lys-NH2 (TGGCAACTGAT; Fam-L(2) label, modified PNA, Lys-NH2, chemistry not fully specified) [Oligo 21, fluorescein-tagged modified PNA oligomer]”, the “cell penetration, fluorescence intensity” value (JAR cells) was “fluorescence intensity is strong”, the “cell penetration, fluorescence intensity” value (HeLa cells; 2 μM, 12 h, without FBS, 40× objective) was “fluorescence intensity is apparent” and the “cell penetration, fluorescence intensity” value (HeLa cells; 2 μM, 24 h, without FBS, 40× objective) was “significantly stronger than that in FIG. 7(e)”. The “cell penetration, fluorescence intensity” value (A549 cells) was “fluorescence intensity is strong”.

In the case of “GC(1O2)A-C(1O2)AT-TTG-C(1O2)CT-NH2 (GCACATTTGCCT; chemistry not fully specified) [Oligo 10, modified PNA oligomer]”, the “inhibition of ribosomal synthesis of mdm2” value (from here on “inhibition”) (mdm2; 5 μM) is reported as “significantly inhibited” and the “inhibition” value (mdm2; 10 μM) is reported as “significantly inhibited”.

With “GC(2O2)A-C(2O2)AT-TTG-C(2O2)CT-NH2 (GCACATTTGCCT; chemistry not fully specified) [Oligo 9]” the “inhibition” value (mdm2; 5 μM) was “significantly inhibited” and the “inhibition” value (mdm2; 10 μM) was “significantly inhibited”.

In the case of “GCA-CAT-TTG-CCT-Lys-NH2 (GCACATTTGCCT; all peptide nucleic acid (PNA), 3' {Lys-NH2}) [Oligo 11, unmodified PNA oligomer, reference compound]”, the “Tm between PNA and complementary DNA” value (complementary DNA) is reported as 58 °C and 59 °C.

In the case of “TG(5)G-C(1O2)AA-C(1O2)TG-A(5)T-Lys-NH2 (TGGCAACTGAT; modified PNA, C-terminal Lys-NH2, chemistry not fully specified) [Oligo 20, modified PNA oligomer]”, the “Tm between PNA and complementary DNA” value (complementary DNA) is reported as 84 °C, the “Tm between PNA and mismatch DNA” value (mismatch DNA; mismatch (G → A), DNA ATC-AAT-TGC-CA) is reported as 65 °C and the “Tm between PNA and mismatch DNA” value (mismatch DNA; mismatch (G → T), DNA ATC-ATT-TGC-CA) is reported as 62 °C. The “decreases in Tm with single base mismatches” value (mismatch DNA) was 19˜22 °C.

In the case of “TGC(1O3)-TAC-TAC(1O3)-TG-Lys-NH2 (TGCTACTACTG; modified PNA, C-terminal Lys-NH2, chemistry not fully specified) [Oligo 3, modified PNA oligomer]”, the “Tm between PNA and complementary DNA” value (complementary DNA) is reported as 65 °C.

For “TGC(2O2)-TAC-TAC(2O2)-TG-Lys-NH2 (TGCTACTACTG; modified PNA, monomer codes such as C(1O3), A(5) undefined, C-terminal Lys-NH2, further chemistry not given here) [Oligo 8, modified PNA oligomer]”, the “Tm between PNA and complementary DNA” value (complementary DNA) was 68 °C.

“TGC-TAC(1O3)-TAC-TG-Lys-NH2 (TGCTACTACTG; modified PNA, monomer codes such as C(1O3), A(5) undefined, C-terminal Lys-NH2, further chemistry not given here) [Oligo 4, modified PNA oligomer]” was tested, and the “Tm between PNA and complementary DNA” value (complementary DNA) was 61 °C.

With “TGC-TAC-TAC-TG-Lys-NH2 (TGCTACTACTG; all peptide nucleic acid (PNA), 3' {Lys-NH2}) [Oligo 5, unmodified PNA oligomer, reference compound]” the “Tm between PNA and complementary DNA” value (complementary DNA) was 55 °C.
